PubChem BioAssay AID330 (DTP/NCI, 2004)
Several values for one entry are separate records, joined by “and”; a condition that tells them apart may be missing. Identical values can stand only once. Toxic doses and inconclusive results are not listed. How the source made its calls: active means survival T/C of 150% or more; inactive means T/C below 125% in these data.

Test system: P388 leukemia ip, CD2F1 mice, survival T/C
Assay: NCI In Vivo Anticancer Drug Screen. Data for tumor model P388 Leukemia (intraperitoneal) in CD2F1 (CDF1) mice
Settings: endpoint: median survival time, higher = longer survival
Method in brief: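 Mice carrying the transplanted tumor received test compound or vehicle. Survival was recorded in each group, and the value is the treated-group measurement divided by that of the vehicle-treated control group.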

[1] = dose: 100.0 mg/kg/injection, schedule: Q04DX003 (ip), vehicle: saline with Tween-80
[2] = dose: 200.0 mg/kg/injection, schedule: Q04DX003 (ip), vehicle: saline with Tween-80
[3] = dose: 50.0 mg/kg/injection, schedule: Q01DX005 (ip), vehicle: saline with Tween-80
[4] = dose: 100.0 mg/kg/injection, schedule: Q01DX005 (ip), vehicle: saline with Tween-80
[5] = dose: 50.0 mg/kg/injection, schedule: Q01DX009 (ip), vehicle: saline
[6] = dose: 100.0 mg/kg/injection, schedule: Q01DX009 (ip), vehicle: saline
[7] = dose: 200.0 mg/kg/injection, schedule: Q01DX009 (ip), vehicle: saline
[8] = dose: 60.0 mg/kg/injection, schedule: Q01DX005 (ip), vehicle: saline with Tween-80
[9] = dose: 120.0 mg/kg/injection, schedule: Q01DX005 (ip), vehicle: saline with Tween-80
[10] = dose: 240.0 mg/kg/injection, schedule: Q01DX005 (ip), vehicle: saline with Tween-80
[11] = dose: 100.0 mg/kg/injection, schedule: Q01DX009 (ip), vehicle: Klucel (hydroxypropylcellulose) (HPC)
[12] = dose: 200.0 mg/kg/injection, schedule: Q01DX009 (ip), vehicle: Klucel (hydroxypropylcellulose) (HPC)
[13] = dose: 400.0 mg/kg/injection, schedule: Q04DX003 (ip), vehicle: saline with Tween-80
[14] = dose: 50.0 mg/kg/injection, schedule: Q01DX009 (ip), vehicle: Klucel (hydroxypropylcellulose) (HPC)

Measured: T/C

CC(=O)SC(C(=O)O)C(SC(C)=O)C(=O)O (centres undefined)
inactive: dose: 25.0 mg/kg/injection, schedule: Q01DX009 (ip), vehicle: other 106 % of control | dose: 50.0 mg/kg/injection, schedule: Q01DX009 (ip), vehicle: other 115 % of control | dose: 100.0 mg/kg/injection, schedule: Q01DX009 (ip), vehicle: other 102 % of control | dose: 200.0 mg/kg/injection, schedule: Q01DX009 (ip), vehicle: other 89 % of control

O=C(COc1ccc([N+](=O)[O-])cc1)Nc1cccnc1
inactive: dose: 50.0 mg/kg/injection, schedule: Q04DX003 (ip), vehicle: saline with Tween-80 98 % of control | [1] 98 % of control | [2] 99 % of control

O=c1c2ccccc2cnn1CO
inactive: dose: 100.0 mg/kg/injection, schedule: Q04DX003 (ip), vehicle: saline 114 % of control | dose: 200.0 mg/kg/injection, schedule: Q04DX003 (ip), vehicle: saline 119 % of control

Cn1c(N)c(C(=O)C(F)(F)F)c(=O)n(C)c1=O
inactive: dose: 50.0 mg/kg/injection, schedule: Q01DX009 (ip), vehicle: saline with Tween-80 99 % of control | dose: 100.0 mg/kg/injection, schedule: Q01DX009 (ip), vehicle: saline with Tween-80 95 % of control | dose: 200.0 mg/kg/injection, schedule: Q01DX009 (ip), vehicle: saline with Tween-80 95 % of control

O=C(CSC(=S)N1CCCCC1)c1ccc([N+](=O)[O-])cc1
inactive: dose: 12.5 mg/kg/injection, schedule: Q01DX009 (ip), vehicle: distilled water + Tween-80 98 % of control | dose: 25.0 mg/kg/injection, schedule: Q01DX009 (ip), vehicle: distilled water + Tween-80 96 % of control | dose: 50.0 mg/kg/injection, schedule: Q01DX009 (ip), vehicle: distilled water + Tween-80 90 % of control | dose: 100.0 mg/kg/injection, schedule: Q01DX009 (ip), vehicle: distilled water + Tween-80 90 % of control | dose: 200.0 mg/kg/injection, schedule: Q01DX009 (ip), vehicle: distilled water + Tween-80 89 % of control

CCN(CC)CCN(CC)c1ccccc1
inactive: [3] 105 % of control | [4] 102 % of control

O=C(O)C(CCc1ccccc1)NCc1ccccc1 (centres undefined)
inactive: dose: 25.0 mg/kg/injection, schedule: Q01DX009 (ip), vehicle: saline 102 % of control | [5] 88 % of control | [6] 88 % of control and 94 % of control | [7] 95 % of control | dose: 400.0 mg/kg/injection, schedule: Q01DX009 (ip), vehicle: saline 89 % of control

CCOC(=O)N1CCC23C=C(OC)C(=O)C=C2C1Cc1ccc(OC)c(O)c13 (centres undefined)
inactive: dose: 100.0 mg/kg/injection, schedule: Q04DX002 (ip), vehicle: saline with Tween-80 100 % of control | dose: 200.0 mg/kg/injection, schedule: Q04DX002 (ip), vehicle: saline with Tween-80 105 % of control | dose: 400.0 mg/kg/injection, schedule: Q04DX002 (ip), vehicle: saline with Tween-80 93 % of control

Fc1cccc(NC(=S)SCc2ccco2)c1
inactive: dose: 50.0 mg/kg/injection, schedule: Q01DX009 (ip), vehicle: suspension in saline 93 % of control | dose: 100.0 mg/kg/injection, schedule: Q01DX009 (ip), vehicle: suspension in saline 90 % of control | dose: 200.0 mg/kg/injection, schedule: Q01DX009 (ip), vehicle: suspension in saline 107 % of control

O=C1C=CC(=CC=C2C=CN(CCCCCCCCCCCO)C=C2)C=C1
inactive: dose: 1.56 mg/kg/injection, schedule: Q01DX005 (ip), vehicle: saline with Tween-80 111 % of control | dose: 3.12 mg/kg/injection, schedule: Q01DX005 (ip), vehicle: saline with Tween-80 114 % of control and 118 % of control | dose: 6.25 mg/kg/injection, schedule: Q01DX005 (ip), vehicle: saline with Tween-80 121 % of control | dose: 7.5 mg/kg/injection, schedule: Q01DX005 (ip), vehicle: saline with Tween-80 109 % of control | dose: 12.5 mg/kg/injection, schedule: Q01DX005 (ip), vehicle: saline with Tween-80 118 % of control and 121 % of control | dose: 15.0 mg/kg/injection, schedule: Q01DX005 (ip), vehicle: saline with Tween-80 109 % of control and 111 % of control | dose: 30.0 mg/kg/injection, schedule: Q01DX005 (ip), vehicle: saline with Tween-80 118 % of control | [3] 100 % of control

ClCCN(CCCl)CCCN1c2ccccc2Sc2ccccc21
inactive: dose: 3.12 mg/kg/injection, schedule: Q01DX009 (ip), vehicle: saline with Tween-80 122 % of control

BrCc1ccc2c(c1)CCC2
inactive: dose: 50.0 mg/kg/injection, schedule: Q01DX009 (ip), vehicle: distilled water + alcohol 106 % of control | dose: 100.0 mg/kg/injection, schedule: Q01DX009 (ip), vehicle: distilled water + alcohol 113 % of control | dose: 200.0 mg/kg/injection, schedule: Q01DX009 (ip), vehicle: distilled water + alcohol 97 % of control

CC(C)=CC(C(=O)C1CC1)C(CC(=O)C1CC1)C(C)C (centres undefined)
inactive: dose: 25.0 mg/kg/injection, schedule: Q01DX005 (ip), vehicle: saline with Tween-80 99 % of control | [3] 92 % of control | [4] 92 % of control

Cc1cc2c(cc1C)C(O)CCC(=O)N2 (centres undefined)
inactive: [8] 95 % of control | [9] 91 % of control | [10] 87 % of control

Cc1nc2c(cnn2C)cc1CCc1ccccc1
inactive: [8] 94 % of control | [9] 95 % of control | [10] 103 % of control

CC1=C/C(=N\NS(=O)(=O)c2ccc([N+](=O)[O-])cc2)CC(C)(C)C1
inactive: [11] 87 % of control | [12] 98 % of control | dose: 400.0 mg/kg/injection, schedule: Q01DX009 (ip), vehicle: Klucel (hydroxypropylcellulose) (HPC) 100 % of control

CCCCCCCCCCCCC(=O)N1CCOCC1
inactive: [1] 100 % of control | [2] 95 % of control | [13] 110 % of control

O=C(Nc1ccc(Br)cc1)ON1CCCCC1
inactive: [5] 91 % of control | [6] 87 % of control | [7] 104 % of control

O=Cc1c(-c2ccc(-c3ccccc3)cc2)nc2sccn12
inactive: dose: 100.0 mg/kg/injection, schedule: Q01DX001 (ip), vehicle: Klucel (hydroxypropylcellulose) (HPC) 86 % of control | dose: 200.0 mg/kg/injection, schedule: Q01DX001 (ip), vehicle: Klucel (hydroxypropylcellulose) (HPC) 89 % of control | dose: 400.0 mg/kg/injection, schedule: Q01DX001 (ip), vehicle: Klucel (hydroxypropylcellulose) (HPC) 89 % of control

COc1ccc2c(c1)N(S(=O)(=O)c1ccc(C)cc1)CC1=C2CCP1(C)=O (centres undefined)
inactive: dose: 100.0 mg/kg/injection, schedule: Q01DX001 (ip), vehicle: saline 111 % of control | dose: 200.0 mg/kg/injection, schedule: Q01DX001 (ip), vehicle: saline 111 % of control | dose: 400.0 mg/kg/injection, schedule: Q01DX001 (ip), vehicle: saline 112 % of control

N#CCCCN1C(=O)c2ccccc2C1=O
inactive: [14] 102 % of control | [11] 104 % of control

Oc1ccccc1C=Nc1ccc2nc(SC3CCCC3)sc2c1
inactive: [14] 93 % of control | [11] 97 % of control | [12] 118 % of control

O=C1C=C2COC(O)CC2CC1 (centres undefined)
inactive: dose: 100.0 mg/kg/injection, schedule: Q04DX003 (ip), vehicle: Klucel (hydroxypropylcellulose) (HPC) 104 % of control | dose: 200.0 mg/kg/injection, schedule: Q04DX003 (ip), vehicle: Klucel (hydroxypropylcellulose) (HPC) 105 % of control | dose: 400.0 mg/kg/injection, schedule: Q04DX003 (ip), vehicle: Klucel (hydroxypropylcellulose) (HPC) 111 % of control

COC(=O)c1ccccc1N=NNc1ccccc1C(N)=O
inactive: [1] 90 % of control | [2] 97 % of control | [13] 99 % of control

O=c1c(-c2ccc3c(c2)OCO3)coc2c3c(ccc12)OCO3
inactive: dose: 8.0 mg/kg/injection, schedule: Q01DX005 (ip), vehicle: Klucel (hydroxypropylcellulose) (HPC) 93 % of control | dose: 16.0 mg/kg/injection, schedule: Q01DX005 (ip), vehicle: Klucel (hydroxypropylcellulose) (HPC) 100 % of control | dose: 32.0 mg/kg/injection, schedule: Q01DX005 (ip), vehicle: Klucel (hydroxypropylcellulose) (HPC) 94 % of control | dose: 64.0 mg/kg/injection, schedule: Q01DX005 (ip), vehicle: Klucel (hydroxypropylcellulose) (HPC) 88 % of control

CCC1CCC(=O)NC1=O (centres undefined)
inactive: [8] 103 % of control | [9] 103 % of control | [10] 98 % of control
